Measured values: US20070286839A1, “COMPOSITION COMPRISING JOJOBA CARBOXYLATES IN COMBINATION WITH JOJOBA ALCOHOL AND COSMETIC FORMULATION COMPRISING SAME” (priority 2006, published 2007)

Test system: normal, human-derived epidermal keratinocytes
Assay: EPIDERM Skin Model In Vitro Toxicity Testing System, dermal irritancy potential (ET-50 test)
Settings: time at which percent viability equals 50%
Procedure: Applicants' jojobate carboxylate/jojoba alcohol/glycol formulation of Example I was evaluated by MatTek Corporation using an EPIDERM Skin Model In Vitro Toxicity Testing System.
The percentage of viable cells was then determined for each test sample using a spectrophotometric analysis at 570 nm. Thereafter, a semi-log plot of the percent viabilities, on the linear Y axis, versus the dosing times, on the log X axis. By interpolation, the time which the percent viability would equal 50%, i.e. the ET-50 time, was determined.

| Compound | ET-50 time |
| --- | --- |
| Triton X | 3.7 h |
| CCCCCCCCCCCCOS(=O)(=O)[O-].[Na+] [Sodium Lauryl Sulfate] | less than 1 hours |
